Measured values as given in patent US7132425B2, “5-substituted-six-membered heteroaromatic glucokinase activators” (Hoffmann-La Roche Inc., priority 2002, dated 2006).

How the values were obtained:
[1] = tested on: C57BL/6J mice; assay: Glucokinase activator in vivo screen (blood glucose after oral dosing); conditions: oral gavage 50 mg/kg after two hour fast, readings 1, 2, 4 and 6 hours post dose, p≦0.05 for two consecutive assay time points
Method: Glucokinase Activator in vivo Screen Protocol: C57BL/6J mice are orally dosed via gavage with Glucokinase (GK) activator at 50 mg/kg body weight following a two hour fasting period. Blood glucose determinations are made five times during the six hour post-dose study period.
Mice (n=6) are weighed and fasted for a two hour period prior to oral treatment.

**Q.** For CS(=O)(=O)c1ccc([C@@H](CC2CCCC2)C(=O)Nc2cnc(/C(N)=N\O)cn2)cc1Cl [Example 1, 2(R)-(3-Chloro-4-methanesulfonyl-phenyl)-3-cyclopentyl-N-[5-(N-hydroxycarbamimidoyl)-pyrazin-2-yl]-propionamide], which melting point is on record?
**A.** 117 to 121 °C

**Q.** And the “decrease in blood glucose compared to vehicle” value (from here on “decrease in blood glucose”) [1]?
**A.** statistically significant (p≦0.05) decrease in blood glucose

**Q.** With CS(=O)(=O)c1ccc([C@@H](CC2CCCC2)C(=O)Nc2cnc(/C(N)=N\O)cn2)cc1 [Example 3, 3-Cyclopentyl-2(R)-N-[5-(N-hydroxycarbamimidoyl)-pyrazin-2-yl]-2-(4-methanesulfonyl-phenyl)-propionamide] as the compound, how does the melting point read?
**A.** 223 °C (dec.)

**Q.** What about the “decrease in blood glucose” value [1] of the same compound?
**A.** statistically significant (p≦0.05) decrease in blood glucose

**Q.** With CS(=O)(=O)c1ccc([C@@H](CC2CCCC2)C(=O)Nc2cnc(SCCO)cn2)cc1Cl [Example 6, 2(R)-(3-Chloro-4-methanesulfonyl-phenyl)-3-cyclopentyl-N-[5-(2-hydroxy-ethylsulfanyl)-pyrazin-2-yl]-propionamide] as the compound, how does the melting point read?
**A.** 78 to 81 °C

**Q.** What about the “decrease in blood glucose” value [1] of the same compound?
**A.** statistically significant (p≦0.05) decrease in blood glucose

**Q.** What does the source list for C[S+]([O-])c1cnc(NC(=O)[C@H](CC2CCCC2)c2ccc(S(C)(=O)=O)c(Cl)c2)cn1 (stereo partly drawn) [Example 7, 2(R)-(3-Chloro-4-methanesulfonyl-phenyl)-3-cyclopentyl-N-(5-methanesulfinyl-pyrazin-2-yl)-propionamide]?
**A.** melting point: 88 to 95 °C; decrease in blood glucose compared to vehicle [1]: statistically significant (p≦0.05) decrease in blood glucose

**Q.** With CN(C)S(=O)(=O)c1cnc(NC(=O)[C@H](CC2CCCC2)c2ccc(S(C)(=O)=O)c(Cl)c2)cn1 [Example 9, 2(R)-(3-Chloro-4-methanesulfonyl-phenyl)-3-cyclopentyl-N-(5-dimethylsulfamoyl-pyrazin-2-yl)-propionamide] as the compound, how does the melting point read?
**A.** 100.2 °C

**Q.** For CS(=O)(=O)Nc1ccc(NC(=O)[C@H](CC2CCCC2)c2ccc(S(C)(=O)=O)c(Cl)c2)nc1 [Example 12, 2(R)-(3-Chloro-4-methanesulfonyl-phenyl)-3-cyclopentyl-N-(5-methanesulfonylamino-pyridin-2-yl)-propionamide], which melting point is on record?
**A.** 146 to 150 °C

**Q.** And the “decrease in blood glucose” value [1]?
**A.** statistically significant (p≦0.05) decrease in blood glucose

**Q.** For CS(=O)(=O)Nc1cnc(NC(=O)[C@H](CC2CCCC2)c2ccc(S(C)(=O)=O)c(Cl)c2)cn1 [Example 13, 2(R)-(3-Chloro-4-methanesulfonyl-phenyl)-3-cyclopentyl-N-(5-methanesulfonylamino-pyrazin-2-yl)-propionamide], which melting point is on record?
**A.** 108 to 110 °C

**Q.** What does the source list for CN(C)c1ccc(NC(=O)[C@H](CC2CCCC2)c2ccc(S(C)(=O)=O)c(Cl)c2)nc1 [Example 14, 2(R)-(3-Chloro-4-methanesulfonyl-phenyl)-3-cyclopentyl-N-(5-dimethylamino-pyridin-2-yl)-propionamide]?
**A.** melting point: 166.2 °C; decrease in blood glucose compared to vehicle [1]: statistically significant (p≦0.05) decrease in blood glucose

**Q.** What does the source list for CN(C)c1cnc(NC(=O)[C@H](CC2CCCC2)c2ccc(S(C)(=O)=O)c(Cl)c2)cn1 [Example 15, 2(R)-(3-Chloro-4-methylsulfonyl-phenyl)-3-cyclopentyl-N-(5-dimethylamino-pyrazin-2-yl)-propionamide]?
**A.** melting point: 93.3 to 97.7 °C; decrease in blood glucose compared to vehicle [1]: statistically significant (p≦0.05) decrease in blood glucose

**Q.** What does the source list for CS(=O)(=O)c1ccc([C@@H](CC2CCCC2)C(=O)Nc2cnc(-c3noc(N)n3)cn2)cc1Cl [Example 17, N-[5-(5-Amino-[1,2,4]oxadiazol-3-yl)-pyrazin-2-yl]-2(R)-(3-chloro-4-methanesulfonyl-phenyl)-3-cyclopentyl-propionamide]?
**A.** melting point: 262 to 264 °C; decrease in blood glucose compared to vehicle [1]: statistically significant (p≦0.05) decrease in blood glucose

**Q.** For CS(=O)(=O)c1ccc([C@@H](CC2CCCC2)C(=O)Nc2cnc(C(=O)NO)cn2)cc1Cl [Example 29, 5-[2(R)-(3-Chloro-4-methanesulfonyl-phenyl)-3-cyclopentyl-propionylamino]-pyrazine-2-carboxylic acid hydroxyamide], which melting point is on record?
**A.** 134 to 139 °C

**Q.** And the “decrease in blood glucose” value [1]?
**A.** statistically significant (p≦0.05) decrease in blood glucose

**Q.** With CSCc1cnc(NC(=O)C(CC2CCCC2)c2ccc(S(C)(=O)=O)c(Cl)c2)cn1 (stereo not drawn) [Example 30, 2-(3-Chloro-4-methanesulfonyl-phenyl)-3-cyclopentyl-N-(5-methylsulfanylmethyl-pyrazin-2-yl)-propionamide] as the compound, how does the melting point read?
**A.** 70 to 75 °C

**Q.** For CN(C)Cc1cnc(NC(=O)[C@H](CC2CCCC2)c2ccc(S(C)(=O)=O)c(Cl)c2)cn1 [Example 32, 2(R)-(3-Chloro-4-methanesulfonyl-phenyl)-3-cyclopentyl-N-(5-dimethylaminomethyl-pyrazin-2-yl)-propionamide], which melting point is on record?
**A.** 88 to 91.5 °C

**Q.** For Cc1nc(-c2cnc(NC(=O)C(CC3CCCC3)c3ccc(S(C)(=O)=O)c(Cl)c3)cn2)no1 (stereo not drawn) [Example 33, 2-(3-Chloro-4-methanesulfonyl-phenyl)-3-cyclopentyl-N-[5-(5-methyl-[1,2,4]oxadiazyl-3-yl)-pyrazin-2-yl]-propionamide], which melting point is on record?
**A.** 101.9 to 104.8 °C

**Q.** Which melting point does the source give for C/C(=N/O)c1cnc(NC(=O)[C@H](CC2CCCC2)c2ccc(S(C)(=O)=O)cc2)cn1 [Example 34, 3-Cyclopentyl-N-[5-(1-hydroxyimino-ethyl)-pyrazin-2-yl]-2(R)-(4-methanesulfonyl-phenyl)-propionamide] here?
**A.** 118.8 to 122.4 °C

**Q.** What about the “decrease in blood glucose” value [1] of the same compound?
**A.** statistically significant (p≦0.05) decrease in blood glucose

**Q.** With Cc1noc(-c2cnc(NC(=O)[C@H](CC3CCCC3)c3ccc(S(C)(=O)=O)c(Cl)c3)cn2)n1 [Example 35, 2(R)-(3-Chloro-4-methanesulfonyl-phenyl)-3-cyclopentyl-N-[5-(3-methyl-[1,2,4]oxadiazol-5-yl)-pyrazin-2-yl]-propionamide] as the compound, how does the melting point read?
**A.** 101 to 105 °C

**Q.** With CSCc1cnc(NC(=O)[C@H](CC2CCCC2)c2ccc(S(C)(=O)=O)c(Cl)c2)cn1 [Example 36, 2(R)-(3-Chloro-4-methanesulfonyl-phenyl)-3-cyclopentyl-N-(5-methylsulfanylmethyl-pyrazin-2-yl)-propionamide] as the compound, how does the melting point read?
**A.** 75 to 76.7 °C

**Q.** With CS(=O)(=O)c1ccc(C(CC2CCCC2)C(=O)Nc2cnc(/C(C#N)=N\O)cn2)cc1Cl (stereo not drawn) [Example 37, 2-(3-Chloro-4-methanesulfonyl-phenyl)-N-[5-(cyano-hydroxyimino-methyl)-pyrazin-2-yl]-3-cyclopentyl-propionamide] as the compound, how does the melting point read?
**A.** 130 to 133 °C

**Q.** With C[S+]([O-])Cc1cnc(NC(=O)[C@H](CC2CCCC2)c2ccc(S(C)(=O)=O)c(Cl)c2)cn1 (stereo partly drawn) [Example 38, 2(R)-(3-Chloro-4-methanesulfonyl-phenyl)-3-cyclopentyl-N-(5-methanesulfinylmethyl-pyrazin-2-yl)-propionamide] as the compound, how does the melting point read?
**A.** 102 to 106 °C

**Q.** With CC(=O)c1cnc(NC(=O)[C@H](CC2CCCC2)c2ccc(S(C)(=O)=O)c(Cl)c2)cn1 [Example 39, N-(5-Acetyl-pyrazin-2-yl)-2(R)-(3-chloro-4-methanesulfonyl-phenyl)-3-cyclopentyl-propionamide] as the compound, how does the melting point read?
**A.** 77 to 80 °C

**Q.** With CS(=O)(=O)c1ccc([C@@H](CC2CCCC2)C(=O)Nc2cnc(C(CO)CO)cn2)cc1Cl [Example 40, 2(R)-(3-Chloro-4-methanesulfonyl-phenyl)-3-cyclopentyl-N-[5-(2-hydroxy-1-hydroxymethyl-ethyl)-pyrazin-2-yl]-propionamide] as the compound, how does the melting point read?
**A.** 110 to 120 °C

**Q.** Which melting point does the source give for CS(=O)(=O)c1ccc([C@@H](CC2CCCC2)C(=O)Nc2cnc(-c3cccs3)cn2)cc1Cl [Example 76, 2(R)-(3-Chloro-4-methanesulfonyl-phenyl)-3-cyclopentyl-N-(5-thiophen-2-yl-pyrazin-2-yl)-propionamide] here?
**A.** 97 to 99 °C

**Q.** And the “decrease in blood glucose” value [1]?
**A.** statistically significant (p≦0.05) decrease in blood glucose

**Q.** Which melting point does the source give for CS(=O)(=O)c1ccc([C@@H](CC2CCCC2)C(=O)Nc2cnc(-c3ccsc3)cn2)cc1Cl [Example 77, 2(R)-(3-Chloro-4-methanesulfonyl-phenyl)-3-cyclopentyl-N-(5-thiophen-3-yl-pyrazin-2-yl)-propionamide] here?
**A.** 96 to 102 °C

**Q.** For CS(=O)(=O)c1ccc([C@@H](CC2CCCC2)C(=O)Nc2cnc(-c3ccoc3)cn2)cc1Cl [Example 78, 2(R)-(3-Chloro-4-methanesulfonyl-phenyl)-3-cyclopentyl-N-(5-furan-3-yl-pyrazin-2-yl)-propionamide], which melting point is on record?
**A.** 97 to 101 °C

**Q.** And the “decrease in blood glucose” value [1]?
**A.** statistically significant (p≦0.05) decrease in blood glucose

**Q.** For CS(=O)(=O)c1ccc([C@@H](CC2CCCC2)C(=O)Nc2cnc(-c3ccc(C#N)s3)cn2)cc1Cl [Example 79, 2(R)-(3-Chloro-4-methanesulfonyl-phenyl)-N-[5-(5-cyano-thiophen-2-yl)-pyrazin-2-yl]-3-cyclopentyl-propionamide], which melting point is on record?
**A.** 101 to 107 °C

**Q.** Which melting point does the source give for CS(=O)(=O)c1ccc([C@@H](CC2CCCC2)C(=O)Nc2cnc(C[C@H](O)CO)cn2)cc1Cl [Example 81, 2(R)-(3-Chloro-4-methanesulfonyl-phenyl)-3-cyclopentyl-N-[5-(2(S),3-dihydroxy-propyl)-pyrazin-2-yl]-propionamide] here?
**A.** 61 to 65 °C

**Q.** With CS(=O)(=O)c1ccc([C@@H](CC2CCCC2)C(=O)Nc2cnc(C[C@@H](O)CO)cn2)cc1Cl [Example 82, 2(R)-(3-chloro-4-methanesulfonyl-phenyl)-3-cyclopentyl-N-[5-(2(R),3-dihydroxy-propyl)-pyrazin-2-yl]-propionamide] as the compound, how does the melting point read?
**A.** 64 to 69 °C
